Holding throughout (format): cell-based
Assay [1] relates to Pseudomonas aeruginosa (ATCC #10145). As to the kind of experiment: Growth curves (OD600). On the procedure: To generate growth curves, overnight cultures of Pseudomonas aeruginosa (ATCC #10145) from Plate Count Agar were lifted and resuspended in dH2O and adjusted to OD600=0.01 with sterile Mueller Hinton Broth (MHB). This culture was distributed into wells of an uncovered 96-well plate with the indicated biocides. The OD600 was then measured initially and then every 30′ for 16 hours at 37° C. with constant double orbital shaking. Due to the opacity of the samples dosed with some test compounds, the curves were generated by background subtracting from wells containing sterile MHB and then subtracted from their initial (t=0) measurement.

The next assay deals with Bacillus sp. Troy JZ14. As to the kind of experiment: Minimum inhibitory concentration testing (microbroth dilution) and synergy index. The conditions noted are these: 96 well microbroth dilution, MHB, 24 hours of incubation. The protocol:
(§1) MICs were determined via microbroth dilution using the following specific test parameters:
(§2) Necessary organism dilutions via OD600 were calculated based on OD600 of 1.0 being equivalent to 8×10^8 CFU/mL. Biocide dilutions were performed in 2-fold increments for each assay.
(§3) Synergy index (SI) scores were calculated according to the mass action equation below: […]
(§4) S.I.[MIC[A]in-blend/MIC[A]alone]+[MIC[B]in-blend/MIC[B]alone]
(§5) Combinations of ingredients were determined to be synergistic (S.I.<0.5), additive (S.I.>0.5 to 1), indifferent (S.I.>1 to <2) or antagonistic (S.I.>2), as defined by EUCAST guidelines. See European Committee for Antimicrobial Susceptibility Testing (EUCAST) of the European Society of Clinical Microbiology and Infectious Diseases (ESCMID). EUCAST Definitive Document E.Def 1.2, May 2000: Terminology relating to methods for the determination of susceptibility of bacteria to antimicrobial agents, Clin. Microbiol. Infect. Off Publ. Eur. Soc. Clin. Microbiol. Infect. Dis. 6, 503-508 (2000); Helander I. M., Mattila-Sandholm T., Fluorometric assessment of gram-negative bacterial permeabilization, J. Appl. Microbiol. 88:213-219 (2000).
(Dilution methods test growth across graded concentrations, often in twofold steps.)

Assay [2] relates to Burkholderia sp. Troy JZ2. Described as above. The protocol:
as §1, §2, §3, §4, §5

The subject of assay [3] is bacterial consortium: Alcaligenes faecalis (ATCC #25094), Enterobacter aerogenes (ATCC #13048), Escherichia coli (ATCC #11229), Pseudomonas aeruginosa (ATCC …). As to the kind of experiment: Bacterial challenge testing (standard). The following applies: for Improvement in the bacterial resistance of paint containing IPBC/ZnO: paint challenge testing (Table A9). The protocol: Bacterial and fungal challenge testing was performed following Troy's standard challenge test procedure SOP MI-07. […] Where indicated, additional bacterial organisms were added to the inoculum such that each organism in the inoculum provided equal CFU. […] Fungal consortia were prepared on Malt Agar slants and diluted to 10^6 spores/mL using a hemocytometer to count before use. Each mixture was prepared shortly before each inoculation. Inoculations were performed by adding 0.5 mL to 50 g of the indicated test sample, giving either ˜10^6 CFU/g of bacteria or ˜10^4 spores/g of fungi per challenge. Viability readings were performed at the indicated intervals following each challenge by applying a small amount of the test sample onto PCA (for bacteria) or Malt Agar (for fungus). Bacterial plates were then incubated at 32° C. for 3-5 days, and Malt Agar plates were incubated for 1 week at 28° C. before reading. Viability plates were evaluated with a semi-quantitative scale. This scale estimates the approximate CFU/g by visual assessment of the colony density along the streak lines. Readings are recorded as the average of two duplicate semi-quantitative readings from “0” to “4.” Samples were mixed before every viability reading and after every inoculation.
(§6) Challenge test scoring was done by the weighted sum of squares for each of the twelve data points collected for each test sample. The weighting was done proportional to the streak day, with day 1 weighted at 10%, day 2 weighted at 20%, and day 3 weighted at 70%. The sum of all 12 values is then taken and divided by the score of the unprotected sample to achieve the total growth score. The reported “weighted performance” score is 1 minus the growth score.

The test system of assay [4] is Pseudomonas aeruginosa (ATCC #10145). Nature of the assay: NPN uptake assay (membrane permeability). The following applies: 1% w/v solutions. The protocol:
The NPN uptake assay was performed roughly as previously described. See Helander I. M., Mattila-Sandholm T., Fluorometric assessment of gram-negative bacterial permeabilization, J. Appl. Microbiol. […] Next, the cells were centrifuged (10,000 g, 5 minutes) washed twice with assay buffer (5 mM HEPES-KOH, 5 mM glucose, pH 7.2) and resuspended in assay buffer to OD600=1. 100 microliters of washed cells in assay buffer was then mixed with 100 microliters of assay buffer containing 20 μM NPN in a 96-well optical bottom black plate (Thermo). Two microliters of the test substances were then added, briefly mixed, and then placed in a plate reader to monitor fluorescence (excitation 350 nm, emission 420 nm) at one minute intervals for 10 minutes. Controls containing no cells or water-only were included in the assay. NPN uptake was calculated using the formula below at each time point and averaged over all time-points and three replicates.

Assay [5] has as its system Pseudomonas sp. Troy JZ103. Nature of the assay: Minimum inhibitory concentration testing (microbroth dilution) and synergy index. The conditions noted are these: 96 well microbroth dilution, MHB, 24 hours of incubation. On the procedure:
as §1
(§7) Biocide dilutions were performed in 2-fold increments for each assay.
as §3, §4
(§8) Combinations of ingredients were determined to be synergistic (S.I.<0.5), additive (S.I.>0.5 to 1), indifferent (S.I.>1 to <2) or antagonistic (S.I.>2), as defined by EUCAST guidelines. See European Committee for Antimicrobial Susceptibility Testing (EUCAST) of the European Society of Clinical Microbiology and Infectious Diseases (ESCMID). EUCAST Definitive Document E.Def 1.2, May 2000: Terminology relating to methods for the determination of susceptibility of bacteria to antimicrobial agents, Clin. Microbiol. Infect. Off Publ. Eur. Soc. Clin. Microbiol. Infect. Dis. […] Microbiol.

The test system of a further assay is S. aureus ATCC #6538. The description is as above. The following applies: 96 well microbroth dilution, MHB, 24 hours of incubation. The protocol:
as §1, §7, §3, §4, §8

Assay [6] has as its system P. aeruginosa ATCC #10145. The assay is described as above. On the procedure: as §1, §7, §3, §4, §8
In assay [7] the test system is Microbacterium sp. Troy JZ13. The assay is described as above. The following applies: 96 well microbroth dilution, MHB, 24 hours of incubation. On the procedure: as §1, §7, §3, §4, §8
For a further assay, the system named is E. coli ATCC #11229. The assay is described as above. The conditions noted are these: 96 well microbroth dilution, MHB, 24 hours of incubation. On the procedure:
as §1, §7, §3, §4, §8

The test system of assay [8] is Pseudomonas aeruginosa (ATCC #10145). As to the kind of experiment: Kill curve. The following applies: for Kill curve CFU/mL: 0.2%. The protocol: Overnight cultures of Pseudomonas aeruginosa (ATCC #10145) growing in Tryptic Soy Broth were diluted to OD600=0.7 in Mueller Hinton Broth containing the indicated level of test compound. Samples containing IPBC were dosed with Polyphase PW40 (40% IPBC). Samples containing ZnO were dosed from a 50% ZnO dispersion (“1678-54”). Time points were collected by adding 1 mL of the sample into 9 mL of Dey-Engley Neutralizing Broth and performing a serial dilution in 1× Butterfield's Phosphate Buffer. Counts were obtained from pour plates in Tryptic Soy Agar after overnight incubation at 35° C.

A further assay concerns E. aerogenes ATCC #13048. As to the kind of experiment: Minimum inhibitory concentration testing (microbroth dilution) and synergy index. The following applies: 96 well microbroth dilution, MHB, 24 hours of incubation. The protocol:
as §1, §7, §3, §4, §8

Assay [9] has as its system bacterial consortium: Alcaligenes faecalis, Enterobacter aerogenes, Escherichia coli, Pseudomonas aeruginosa, Staphylococcus aureus, Microbacterium …. Nature of the assay: Bacterial challenge testing (industrial strength).
Source text: Where industrial strength inoculations are indicated, bacterial challenge testing organisms were Alcaligenes faecalis (ATCC #25094), Enterobacter aerogenes (ATCC #13048), Escherichia coli (ATCC #11229), Pseudomonas aeruginosa (ATCC #10145), Staphylococcus aureus (ATCC #6538), Microbacterium paraoxydans (Troy Isolate), Burkholderia cenocepacia (Troy Isolate), Citrobacter werkmanii (Troy Isolate), and Acinetobacter sp. (Troy Isolate). All bacteria were blended from separate overnight cultures grown in Tryptic Soy Broth (TSB) and mixed at equal CFU via OD600 measurements, then diluted to OD600=7 (˜10^9 CFU/mL) to create the final bacterial consortium. Each mixture was prepared shortly before each inoculation. Inoculations were performed by adding […] to 50 g of the indicated test sample to give ˜10^7 CFU/g per inoculation. Viability readings were performed at the indicated intervals following each challenge by applying a small amount of the test sample onto PCA. Plates were then incubated at 32° C. for 3-5 days before being evaluated with a semi-quantitative scale. This scale estimates the approximate CFU/g by visual assessment of the colony density along the streak lines. Readings are recorded as the average of two duplicate semi-quantitative readings from “0” to “4.” Samples were mixed before every viability reading and after every inoculation.
as §6

Setting [10] is: 96 well microbroth dilution, MHB, 24 hours of incubation.
The mark [11] stands for this setting: Joint Compound, lowest concentration free of detectable bacterial growth 7 days following the 4th inoculation.
[12] abbreviates: Interior Paint #1, lowest concentration free of detectable bacterial growth 7 days following the 4th inoculation.

Several values for one entry are separate records, joined by “and”; a condition that tells them apart may be missing. Equal values may be shown once. Read-outs that look alike come from different tables or passages of the source. Residues, ends and D or L forms follow the SMILES beside them. *: point of attachment. βNA = c1ccc2cc(N*)ccc2c1

Take `N=C(N)NCCC[C@H](NC(=O)[C@@H](N)Cc1ccccc1)C(=O)Nc1ccc2ccccc2c1` [PAβN, phenylalanine-arginine beta-napthylamide] (H-Phe-Arg-βNA): the “Impact on Pseudomonas growth” value in assay [1] (0.125-0.5 mM PAβN alone, 16 hours at 37° C.) is reported as “minimal impact”.
In the case of `CCCCCCOCCOCCO` [Hexyl Carbitol], the MIC with Bacillus sp. Troy JZ14 was 4447 ppm; in [2] (setting [10]), 1853 ppm; in assay [5], 5929 ppm; in the assay on S. aureus ATCC #6538, 11857 ppm; in assay [6] (setting [10]), 11856 ppm; in assay [7], 1482 ppm. Besides, the MIC with E. coli ATCC #11229 is 11857 ppm. Also, the “Improvement in the bacterial resistance of paint containing IPBC/ZnO” value in [3] is “highly similar performance as 1,2-hexanediol”. The “Membrane disruption potential against Pseudomonas (NPN assay)” value (from here on “Membrane disruption potential”) in assay [4] is reported as “highest membrane disruption potential”.
In the case of `CCCCCCOCCO` [Hexyl Cellosolve], the “Membrane disruption potential” value in [4] was “highest membrane disruption potential”.
For `[Cl-].[Cl-].[Mg+2]` [MgCl2], the Pseudomonas growth result in assay [1] (control, without PAβN (FIG. 1C)) is “no Pseudomonas inhibition”.
Consider `[O]=[Zn]` [ZnO, zinc oxide], for which the MIC is 3212 ppm in the assay with Bacillus sp. Troy JZ14; 2000 ppm in assay [2] (setting [10]); 3400 ppm in [5]; 250 ppm with S. aureus ATCC #6538; no less than 2400 ppm in [6] (setting [10]); 3206 ppm in assay [7]. The MIC in the assay with E. coli ATCC #11229 and in the assay with E. aerogenes ATCC #13048 was 2400 ppm each time. Moreover, the “Kill curve CFU/mL” value in [8] (0 hrs) is 5.40E+06 CFU/mL and 7.00E+06 CFU/mL; in [8] (2 hrs), 7.10E+06 CFU/mL and 7.30E+06 CFU/mL; in [8] (24 hrs), 1.33E+10 CFU/mL and 1.45E+10 CFU/mL; in assay [8] (48 hrs), 4.90E+09 CFU/mL and 3.80E+09 CFU/mL. In addition, the “Kill of the inoculum” value in assay [9] (paint, 2.5% w/w (10,000 ppm), 7 days after challenge) is given as “complete kill”.
As to `CC(C)C(=O)OCC(C)(C)C(O)C(C)C` (stereo not shown) [Texanol], the “Membrane disruption potential” value in [4] is recorded as “highest membrane disruption potential”.
Regarding `CC(=O)OCC(COC(C)=O)OC(C)=O` [Triacetin], the “Improvement in the bacterial resistance of paint containing IPBC/ZnO” value in [3] was “some improvement”.
For `CCCCC(O)CO` (stereo not shown) [1,2-hexanediol], the MIC in the assay with Bacillus sp. Troy JZ14 (Bacillus, read-out: MIC) was 10000 µg/mL; in assay [2] (Burkholderia, 24 h), 5000 µg/mL; in assay [5] (Pseudomonas, read-out: MIC), 5000 µg/mL; with S. aureus ATCC #6538 (Staphylococcus aureus, ATCC6538, read-out: MIC), 24 mg/mL; in assay [6] (Pseudomonas aeruginosa, ATCC10145, 24 h) it was 6000 µg/mL; in assay [7] (read-out: MIC) it was 6000 µg/mL. The MIC in the assay on E. coli ATCC #11229 (Escherichia coli, ATCC11229, read-out: MIC) came out at 6000 µg/mL; with E. aerogenes ATCC #13048 (Klebsiella aerogenes, ATCC13048, read-out: MIC), 10000 µg/mL. The “Pass Level” value is on record as 1.2 % w/w in assay [3] (setting [11]) and “Not Effective” in assay [9] (setting [12]). Moreover, the results for the “Pass Level (ppm a.i.)” value in [3] (setting [11]) and in assay [9] (setting [12]) were 11,880 ppm a.i and > 12,000 ppm a.i, respectively. In addition, in assay [8] (1,2-hexanediol added to IPBC/ZnO (FIG. 5)), the “Killing of Pseudomonas (kill curve)” value is reported as “fully capable of killing Pseudomonas”.

(Values after patent US20250338851A1, “Boosted IPBC for Wet-State Bacterial Control” (Troy Technology II, Inc., priority 2021, published 2025).)
